Experimental data published in patent publication US20250296971A1, “GASTRIC INHIBITORY PEPTIDE RECEPTOR LIGANDS” (priority 2021, published 2025).
Read-outs that look alike come from different tables or passages of the source. *1 amine or outer side, *2 acyl side, *3 side chain or, on linkers, in order; H or OH if unused. Where a SMILES comes first, the peptide text is derived from it. Bridges are numbered along the chain shown (N, C = ends). Side-chain parts run from the residue outwards. [ ]: non-standard residue; d: D form. The star is where a group is joined. DOTA(Lu) = O=C1CN2CCN3CCN(CC(=O)*)CCN(CC2)CC(=O)[O][Lu]([O]1)[O]C(=O)C3; NH(1-deoxy-D-glucityl) = OC[C@@H](O)[C@@H](O)[C@H](O)[C@@H](O)CN*; Pro(trans-4-NH2) = O=C([C@@H]1C[C@@H](N[*:3])CN1[*:1])[*:2]; DOTA = O=C(O)CN1CCN(CC(=O)O)CCN(CC(=O)*)CCN(CC(=O)O)CC1; Trp(5-Cl) = N[C@@H](Cc1c[nH]c2ccc(Cl)cc12)C(=O)O; Pyridine(2,6-diCH2) = c1cc(C[*:1])nc(C[*:2])c1; Pro(4R-NH2) = N[C@H]1CN[C@H](C(=O)O)C1; Glutaryl = O=C(CCCC(=O)[*:2])[*:1]; Hyp = O=C(O)[C@@H]1C[C@@H](O)CN1; X1 = O=C(CN1CCC(N[*:1])CC1)[*:2]; Suc = O=C(CCC(=O)[*:2])[*:1]; hSer = N[C@@H](CCO)C(=O)O; Api = NC1(C(=O)O)CCNCC1; Thp = NC1(C(=O)O)CCOCC1

Experiments:
[1] = target: T1, GIPR (CHO-K1-hGIPR cells) (Homo sapiens, UniProt P48546); experiment: FACS binding assay; settings: competition with 20 nM GIP-057, 4° C., 1 hour
T1 construct: host or cells: CHO-K1
T1 sequence (P48546 22-466): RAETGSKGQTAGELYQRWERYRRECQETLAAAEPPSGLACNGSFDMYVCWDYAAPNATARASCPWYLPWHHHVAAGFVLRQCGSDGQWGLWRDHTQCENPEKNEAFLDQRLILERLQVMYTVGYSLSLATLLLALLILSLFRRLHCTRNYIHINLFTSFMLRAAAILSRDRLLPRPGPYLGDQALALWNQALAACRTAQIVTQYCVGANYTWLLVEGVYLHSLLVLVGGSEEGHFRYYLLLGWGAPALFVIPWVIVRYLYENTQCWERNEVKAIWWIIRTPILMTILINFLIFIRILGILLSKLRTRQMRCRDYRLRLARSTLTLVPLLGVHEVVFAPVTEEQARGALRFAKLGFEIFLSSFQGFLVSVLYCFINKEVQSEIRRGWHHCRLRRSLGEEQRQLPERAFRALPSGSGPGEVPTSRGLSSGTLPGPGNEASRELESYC
Summary of the method: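 Read-out: flow cytometric median fluorescence intensity, APC/Cy5 channel, plotted vs peptide conc.; 4PL fit → EC50/pEC50 or IC50/pIC50. Cells: CHO-K1-hGIPR, Accutase-detached, 500.000/mL in PBS + 1% FCS. Detection: APC-streptavidin 1 μg/mL, 30 min, on ice.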

[2] = target: T2, human GIP receptor (bioGIPR) (Homo sapiens, UniProt P48546); experiment: Surface plasmon resonance (SPR) based binding assay; settings: for t1/2 Category: SPR dissociation half-life
T2 construct: Biotinylate extracellular of the human GIP receptor (bioGIPR, Proteros biostructures GmbH, lot #02/2b); purchased Proteros biostructures GmbH lot #02/2b
T2 sequence (P48546 22-138 limits assumed): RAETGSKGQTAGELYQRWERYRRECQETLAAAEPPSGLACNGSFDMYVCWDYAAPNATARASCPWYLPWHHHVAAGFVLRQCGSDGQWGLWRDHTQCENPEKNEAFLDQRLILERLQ
Experimental: Surface plasmon resonance (SPR) studies were performed using a Biacore™ T200 SPR system. Briefly, polarized light is directed towards a gold-labeled sensor surface, and minimum intensity reflected light is detected. The angle of reflected light changes as molecules bind and dissociate.
Biotinylate extracellular of the human GIP receptor (bioGIPR, Proteros biostructures GmbH, lot #02/2b) was captured on a biotin capture chip (Biotin CAPture Kit, Series S, GE Healthcare, Cat #28-9202-34). bioGIPR was diluted in Running Buffer (HBST from Xantec Analytics; […], 0.05% Tween20, 0.1% DMSO) to a final concentration 100 nM and than flushed over the Fc-capture chip to immobilized ˜3500 RUs.
Stock solutions of test compounds were prepared by dissolving each compound in DMSO. DMSO stock solution were diluted 1:1000 in Running Buffer without DMSO. Further sequential dilutions were made with Running Buffer containing 0.1% DMSO. SPR binding analyses were performed in Single Cycle Kinetic (SCK) mode at 25° C. Flow cell without immobilized bioGIPR served as reference flowcell. After each SCK run, bioGIRP and the Biotin Capture Reagent was removed with Regeneration Solution (6 M Guanidium, 0.75 M NaOH).
In between every three SCK measurements, a blank run with Running Buffer instead of test compound was included to correct for baseline drifts (double blanking method).
For each test compound, SPR raw data in the form of resonance units (RU) were plotted as sensorgrams using the Biacore™ T200 control software. The signal from the blank sensorgram was subtracted from that of the test compound sensorgram (blank corrected). The blank corrected sensorgram was corrected for baseline drift by subtracting the sensorgram of a SCK run without the test compound (running buffer only). The association rate (kon), dissociation rate (koff), dissociation constant (KD), and t1/2 were calculated from blank corrected SPR data using the 1:1 Langmuir binding model from the Biacore™ T200 evaluation software. Raw data and fit results were imported as text files in IDBS. The pKD value (negative decadic logarithm of dissociation constant) was calculated in the IDBS excel template.

[3] = read-out: pIC50 Category (converted)
[4] = Single Cycle Kinetic mode, 25° C.
[5] = SPR, Single Cycle Kinetic mode, 25° C., 1:1 Langmuir binding model, read-out: pKD Category (converted)

IC50 [1, 3] [nM]	t1/2 Category [2, 4]	Kd [2, 5] [nM]	Structure (SMILES)	IC50 ([1]; pIC50 Category) [nM]	Kd [2] [nM]
< 10	A (t1/2 values>15 min)	< 1	CC[C@H](C)[C@@H]1NC(=O)[C@H](CC(C)C)NC(=O)C2(CCOCC2)NC(=O)[C@@H](NC(=O)[C@@H](CC(C)C)NC(=O)[C@H](CCC(=O)O)NC(=O)[C@@H]2C[C@@H](O)CN2C(=O)[C@H](Cc2c[nH]c3ccc(Cl)cc23)NC(=O)[C@H](Cc2c[nH]c3ccccc23)NC(=O)CCC(=O)O)CSCc2cccc(n2)CSC[C@@H](C(=O)NC2CCN(CC(=O)N[C@H](CCC(=O)NC[C@H](O)[C@@H](O)[C@H](O)[C@H](O)CO)C(=O)N[C@@H](CCCCNC(=O)CN3CCN(CC(=O)O)CCN(CC(=O)O)CCN(CC(=O)O)CC3)C(N)=O)CC2)NC1=O [GIP-021, HO-Succinyl-Trp-5Clw-Hyp-Glu-leu-[Cys(2Lut)-Thp-Leu-Ile-Cys]-APAc-glu(AGLU)-Lys(DOTA)-NH2] (Suc-W[Trp(5-Cl)][Hyp]E[dL]C[Thp]LIC[X1][dE](NH(1-deoxy-D-glucityl))K(DOTA)-NH2; linker 6-10 via Pyridine(2,6-diCH2))		
< 10	A (t1/2 values>15 min)	< 1	CC[C@H](C)[C@@H]1NC(=O)[C@H](CC(C)C)NC(=O)C2(CCNCC2)NC(=O)[C@@H](NC(=O)[C@@H](CC(C)C)NC(=O)[C@H](CCC(=O)O)NC(=O)[C@@H]2C[C@@H](N)CN2C(=O)[C@H](Cc2c[nH]c3ccc(Cl)cc23)NC(=O)[C@H](Cc2c[nH]c3ccccc23)NC(=O)CCC(=O)O)CSCc2cccc(n2)CSC[C@@H](C(=O)NC2CCN(CC(=O)N[C@H](CCC(=O)NC[C@H](O)[C@@H](O)[C@H](O)[C@H](O)CO)C(=O)N[C@@H](CCCCNC(=O)CN3CCN(CC(=O)O)CCN(CC(=O)O)CCN(CC(=O)O)CC3)C(N)=O)CC2)NC1=O [GIP-022, HO-Succinyl-Trp-5Clw-Tap-Glu-leu-[Cys(2Lut)-Apc-Leu-Ile-Cys]-APAc-glu(AGLU)-Lys(DOTA)-NH2] (Suc-W[Trp(5-Cl)][Pro(4R-NH2)]E[dL]C[Api]LIC[X1][dE](NH(1-deoxy-D-glucityl))K(DOTA)-NH2; linker 6-10 via Pyridine(2,6-diCH2))		
10 to 79.4	D (t1/2<2.0 min)	1 to 7.94	CC[C@H](C)[C@@H]1NC(=O)[C@H](CC(C)C)NC(=O)C2(CCN(C(=O)CN3CCN(CC(=O)O)CCN(CC(=O)O)CCN(CC(=O)O)CC3)CC2)NC(=O)[C@@H](NC(=O)[C@@H](CC(C)C)NC(=O)[C@H](CCO)NC(=O)[C@@H]2C[C@@H](NC(=O)CCCC(=O)NC[C@H](O)[C@@H](O)[C@H](O)[C@H](O)CO)CN2C(=O)[C@H](Cc2c[nH]c3ccc(Cl)cc23)NC(=O)[C@H](Cc2c[nH]c3ccccc23)NC(=O)[C@H](CO)NC(=O)CN2CCC(NC(=O)CCCC(=O)NC[C@H](O)[C@@H](O)[C@H](O)[C@H](O)CO)CC2)CSCc2cccc(n2)CSC[C@@H](C(=O)NC2CCN(CC(=O)N[C@H](CCC(=O)NC[C@H](O)[C@@H](O)[C@H](O)[C@H](O)CO)C(N)=O)CC2)NC1=O [GIP-046, AGLU-Glutar-APAc-Ser-Trp-5Clw-Tap(AGLU-Glutar)-Hse-leu-[Cys(2Lut)-Apc(DOTA)-Leu-Ile-Cys]-APAc-glu(AGLU)-NH2] ({NH(1-deoxy-D-glucityl)-Glutaryl}-[X1]SW[Trp(5-Cl)][Pro(trans-4-NH2)]([Glutaryl-NH(1-deoxy-D-glucityl)])[hSer][dL]C[Api](DOTA)LIC[X1][dE](NH(1-deoxy-D-glucityl))-NH2; linker 8-12 via Pyridine(2,6-diCH2))		
10 to 79.4	D (t1/2<2.0 min)	1 to 7.94	CC[C@H](C)[C@@H]1NC(=O)[C@H](CC(C)C)NC(=O)C2(CCN(C(=O)CN3CCN(CC(=O)O)CCN(CC(=O)O)CCN(CC(=O)O)CC3)CC2)NC(=O)[C@@H](NC(=O)[C@@H](CC(C)C)NC(=O)[C@H](CCO)NC(=O)[C@@H]2C[C@@H](N)CN2C(=O)[C@H](Cc2c[nH]c3ccc(Cl)cc23)NC(=O)[C@H](Cc2c[nH]c3ccccc23)NC(=O)[C@H](CO)NC(=O)CN2CCC(NC(=O)CCCC(=O)NC[C@H](O)[C@@H](O)[C@H](O)[C@H](O)CO)CC2)CSCc2cccc(n2)CSC[C@@H](C(=O)NC2CCN(CC(=O)N[C@H](CCC(=O)NC[C@H](O)[C@@H](O)[C@H](O)[C@H](O)CO)C(N)=O)CC2)NC1=O [GIP-048, AGLU-Glutar-APAc-Ser-Trp-5Clw-Tap-Hse-leu-[Cys(2Lut)-Apc(DOTA)-Leu-Ile-Cys]-APAc-glu(AGLU)-NH2] ({NH(1-deoxy-D-glucityl)-Glutaryl}-[X1]SW[Trp(5-Cl)][Pro(4R-NH2)][hSer][dL]C[Api](DOTA)LIC[X1][dE](NH(1-deoxy-D-glucityl))-NH2; linker 8-12 via Pyridine(2,6-diCH2))		
10 to 79.4	D (t1/2<2.0 min)	1 to 7.94	CC[C@H](C)[C@@H]1NC(=O)[C@H](CC(C)C)NC(=O)C2(CCN(C(=O)CN3CCN(CC(=O)O)CCN(CC(=O)O)CCN(CC(=O)O)CC3)CC2)NC(=O)[C@@H](NC(=O)[C@@H](CC(C)C)NC(=O)[C@H](CCC(=O)O)NC(=O)[C@@H]2C[C@@H](O)CN2C(=O)[C@H](Cc2c[nH]c3ccc(Cl)cc23)NC(=O)[C@H](Cc2c[nH]c3ccccc23)NC(=O)[C@H](CCO)NC(=O)CN2CCC(NC(=O)CCCC(=O)NC[C@H](O)[C@@H](O)[C@H](O)[C@H](O)CO)CC2)CSCc2cccc(n2)CSC[C@@H](C(=O)NC2CCN(CC(=O)N[C@H](CCC(=O)NC[C@H](O)[C@@H](O)[C@H](O)[C@H](O)CO)C(N)=O)CC2)NC1=O [GIP-049, AGLU-Glutar-APAc-Hse-Trp-5Clw-Hyp-Glu-leu-[Cys(2Lut)-Apc(DOTA)-Leu-Ile-Cys]-APAc-glu(AGLU)-NH2] ({NH(1-deoxy-D-glucityl)-Glutaryl}-[X1][hSer]W[Trp(5-Cl)][Hyp]E[dL]C[Api](DOTA)LIC[X1][dE](NH(1-deoxy-D-glucityl))-NH2; linker 8-12 via Pyridine(2,6-diCH2))		

Structure (SMILES)	IC50 [1, 3] [nM]	t1/2 Category [2, 4]	Kd [2, 5] [nM]	IC50 ([1]; pIC50 Category) [nM]	Kd [2] [nM]
CC[C@H](C)[C@@H]1NC(=O)[C@H](CC(C)C)NC(=O)C2(CCN(C(=O)CN3CCN4CCN5CCN(CC3)CC(=O)[O][Lu]([O]C(=O)C5)[O]C(=O)C4)CC2)NC(=O)[C@@H](NC(=O)[C@@H](CC(C)C)NC(=O)[C@H](CCC(=O)O)NC(=O)[C@@H]2C[C@@H](N)CN2C(=O)[C@H](Cc2c[nH]c3ccc(Cl)cc23)NC(=O)[C@H](Cc2c[nH]c3ccccc23)NC(=O)[C@H](CC(=O)O)NC(=O)CCCC(=O)NC[C@H](O)[C@@H](O)[C@H](O)[C@H](O)CO)CSCc2cccc(n2)CSC[C@@H](C(=O)NC2CCN(CC(=O)N[C@H](CCC(=O)NC[C@H](O)[C@@H](O)[C@H](O)[C@H](O)CO)C(N)=O)CC2)NC1=O [GIP-066, Lutetium-Complex of AGLU-Glutar-Asp-Trp-5Clw-Hyp-Glu-leu-[Cys(2Lut)-Apc(DOTA)-Leu-Ile-Cys]-APAc-glu(AGLU)-NH2] ({NH(1-deoxy-D-glucityl)-Glutaryl}-DW[Trp(5-Cl)][Pro(4R-NH2)]E[dL]C[Api](DOTA(Lu))LIC[X1][dE](NH(1-deoxy-D-glucityl))-NH2; linker 7-11 via Pyridine(2,6-diCH2))		A (t1/2 values>15 min)		< 10	< 1
